The record followed here is PubChem BioAssay (NCI).

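48-hour exposure; five concentrations; linearly interpolated endpoints. At the GI50, growth is halved. TGI is the concentration that stops growth completely.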 Bounds are passed on as bounds.

Among the test systems are RXF 393 renal; HOP-62 NSCLC; NCI/ADR-RES ovarian; SF-539 CNS; NCI-H522 lung; A549 NSCLC; LOX IMVI melanoma; TK-10 renal; 786-0 renal; OVCAR-4 ovarian.
Holding throughout (assay): NCI anticancer screen, dose series, 48 h

With `CSc1cc(N=Nc2nc3ccccc3s2)c2ccccc2c1O`, the GI50 in the assay with RXF 393 renal is 5990 nM; in the assay on HOP-62 NSCLC it was 10200 nM; in the assay with NCI/ADR-RES ovarian, 7170 nM; with SF-539 CNS, 41.3 nM; in the assay with NCI-H522 lung, 1820 nM; with A549 NSCLC, 12100 nM. Further, the GI50 in the assay on LOX IMVI melanoma was 5970 nM; in the assay with TK-10 renal, 12600 nM; in the assay with 786-0 renal it was 9820 nM. Besides, the TGI in the assay on RXF 393 renal was found to be 14.3 µM; with HOP-62 NSCLC, 20 µM; in the assay with NCI/ADR-RES ovarian it was 20.7 µM; in the assay on SF-539 CNS it was 3.87 µM; with NCI-H522 lung it was 13.1 µM; with A549 NSCLC, 28.1 µM. The results for the TGI with LOX IMVI melanoma, in the assay with TK-10 renal and in the assay with 786-0 renal were 12700 nM, 28.7 µM and 18.4 µM, respectively.
On to `N#CSCC1CC(O)(c2ccccc2)C(c2ccccc2)C(c2ccc(Cl)cc2)O1` (stereo unspecified), for which the GI50 was 1620 nM in the assay with RXF 393 renal; 2080 nM with HOP-62 NSCLC; 1670 nM in the assay on NCI/ADR-RES ovarian; 1760 nM in the assay on SF-539 CNS; 1220 nM in the assay on OVCAR-4 ovarian; 1780 nM with A549 NSCLC. Further, the GI50 in the assay with LOX IMVI melanoma was 1580 nM; in the assay with TK-10 renal, 2010 nM; in the assay on 786-0 renal, 1740 nM. Besides, the TGI was 3.24 µM in the assay on RXF 393 renal; 3.96 µM in the assay with HOP-62 NSCLC; 3.43 µM in the assay with NCI/ADR-RES ovarian; 3.17 µM in the assay with SF-539 CNS; 2.53 µM in the assay with OVCAR-4 ovarian; 4.24 µM in the assay on A549 NSCLC. Moreover, the TGI with LOX IMVI melanoma is 2970 nM; in the assay on TK-10 renal, 4.2 µM; in the assay on 786-0 renal, 3.28 µM.
As to `CCN(CC)c1c(C(=O)/C=C/c2ccccc2)c(-c2ccccc2)nn(C)c1=O`, the TGI in the assay on RXF 393 renal, in the assay on HOP-62 NSCLC, in the assay on SF-539 CNS, in the assay with NCI-H522 lung, in the assay with OVCAR-4 ovarian and in the assay on A549 NSCLC was above 100 µM in each case. Moreover, the results for the TGI with LOX IMVI melanoma, in the assay on TK-10 renal and with 786-0 renal were 35900 nM, above 100 µM and above 100 µM, respectively.
`O=C(O)Cn1ccc(=O)c2ccc([N+](=O)[O-])cc21`: the TGI in the assay on HOP-62 NSCLC, in the assay on NCI/ADR-RES ovarian, in the assay with SF-539 CNS, in the assay with NCI-H522 lung, in the assay with A549 NSCLC and with TK-10 renal was above 100 µM each time. In addition, the TGI with 786-0 renal was above 100 µM.
Consider `COC(=O)C1=C(C(=O)OC)C2C=CC1C1C(Cl)=C(Cl)C21` (stereo unspecified), for which the TGI in the assay with RXF 393 renal, in the assay with HOP-62 NSCLC, in the assay on SF-539 CNS, with NCI-H522 lung, with OVCAR-4 ovarian and in the assay on A549 NSCLC was above 100 µM in each case. The TGI in the assay with LOX IMVI melanoma is above 100000 nM; in the assay with TK-10 renal, above 100 µM; with 786-0 renal, above 100 µM.
On to `Cc1ccc2c(c1)C(=O)/C(=C/c1ncc([N+](=O)[O-])n1C)O2`, for which the GI50 in the assay with HOP-62 NSCLC is 5790 nM; in the assay with NCI/ADR-RES ovarian, 2240 nM; with SF-539 CNS it was 2260 nM; with NCI-H522 lung, 1500 nM; in the assay on OVCAR-4 ovarian, 2150 nM; in the assay with A549 NSCLC, 2740 nM. Also, the figures for the GI50 in the assay with LOX IMVI melanoma, in the assay on TK-10 renal and in the assay on 786-0 renal were 404 nM, 3190 nM and 2160 nM, respectively. The TGI in the assay on HOP-62 NSCLC was 16.9 µM; with NCI/ADR-RES ovarian it was 7.04 µM; with SF-539 CNS, 6.19 µM; in the assay on NCI-H522 lung, 3.38 µM; with OVCAR-4 ovarian, above 22.7 µM; in the assay with A549 NSCLC it was 9.29 µM. The TGI in the assay with LOX IMVI melanoma was 1230 nM; in the assay with TK-10 renal it was 11 µM; with 786-0 renal, 5.31 µM.
Regarding `O=[N+]([O-])/C=C\c1ccc(Cl)c(Cl)c1`, the GI50 was 1680 nM in the assay on RXF 393 renal; 2880 nM in the assay on HOP-62 NSCLC; 2180 nM in the assay on NCI/ADR-RES ovarian; 3830 nM in the assay with SF-539 CNS; 11500 nM with OVCAR-4 ovarian; 2370 nM with A549 NSCLC. The GI50 is 412 nM with LOX IMVI melanoma, 3480 nM in the assay on TK-10 renal and 1890 nM with 786-0 renal. Also, the TGI in the assay on RXF 393 renal was 3.11 µM; in the assay with HOP-62 NSCLC, 9.57 µM; in the assay with NCI/ADR-RES ovarian it was 4.78 µM; in the assay with SF-539 CNS it was 18.2 µM; in the assay on OVCAR-4 ovarian, 24 µM; in the assay on A549 NSCLC, 5.43 µM. In addition, the TGI in the assay with LOX IMVI melanoma is 1730 nM; in the assay on TK-10 renal, 12 µM; with 786-0 renal it was 3.56 µM.
On to `CCNCCNc1cc(-c2ccc(C(=O)OC)cc2)c(C#N)c2nc3ccccc3n12`, for which the GI50 was 1420 nM with RXF 393 renal; 2480 nM in the assay on HOP-62 NSCLC; 2800 nM in the assay on NCI/ADR-RES ovarian; 1740 nM with SF-539 CNS; 1720 nM in the assay with NCI-H522 lung; 1460 nM in the assay with A549 NSCLC. Besides, the GI50 is 1530 nM with LOX IMVI melanoma, 1910 nM in the assay on TK-10 renal and 1560 nM in the assay on 786-0 renal. The TGI was 2.85 µM with RXF 393 renal; 9.46 µM in the assay with HOP-62 NSCLC; above 100 µM in the assay on NCI/ADR-RES ovarian; 3.33 µM in the assay on SF-539 CNS; 4.52 µM in the assay on NCI-H522 lung; 5.01 µM with A549 NSCLC. Also, the TGI came out at 2990 nM in the assay on LOX IMVI melanoma, 4.44 µM in the assay with TK-10 renal and 3.46 µM with 786-0 renal.
Regarding `CCCCN(CCCC)C(=O)C(=O)C(C#N)c1ccc(C)cc1` (stereo unspecified), the TGI in the assay with RXF 393 renal, in the assay with HOP-62 NSCLC, in the assay with SF-539 CNS, with NCI-H522 lung, in the assay on OVCAR-4 ovarian and in the assay on A549 NSCLC was above 100 µM in each case. Also, the TGI in the assay with LOX IMVI melanoma is above 100000 nM; in the assay with TK-10 renal, above 100 µM; in the assay on 786-0 renal, above 100 µM.
Turning to `Cc1ccc(S(=O)(=O)C(CC(=O)N2CCCC2)C(=O)c2ccccc2)cc1` (stereo unspecified), the TGI in the assay on RXF 393 renal, in the assay with HOP-62 NSCLC, with SF-539 CNS, with NCI-H522 lung, in the assay with OVCAR-4 ovarian and with A549 NSCLC was above 100 µM each time. Moreover, the values for the TGI with LOX IMVI melanoma, in the assay on TK-10 renal and in the assay on 786-0 renal were above 100000 nM, above 100 µM and above 100 µM, respectively.
Consider `CN1CCN(Cc2ccc(NC(=O)c3cncc(C#Cc4cnc(N)c5ccc(C#N)cc45)c3)cc2C(F)(F)F)CC1`, for which the GI50 was 16.2 nM in the assay with RXF 393 renal; 43.9 nM in the assay with HOP-62 NSCLC; 915 nM with NCI/ADR-RES ovarian; 101 nM with SF-539 CNS; 88 nM with NCI-H522 lung; 35.3 nM in the assay on A549 NSCLC. Besides, the GI50 with LOX IMVI melanoma was 20.3 nM; in the assay on TK-10 renal it was 210 nM; with 786-0 renal it was 111 nM. In addition, the TGI in the assay with RXF 393 renal worked out at 0.151 µM; in the assay with HOP-62 NSCLC, 0.927 µM; in the assay with NCI/ADR-RES ovarian, 2.03 µM; in the assay on SF-539 CNS, 0.598 µM; in the assay on NCI-H522 lung it was 1.69 µM; with A549 NSCLC, 0.919 µM. Besides, the TGI with LOX IMVI melanoma amounted to 546 nM; with TK-10 renal it was 1.47 µM; with 786-0 renal, 1.01 µM.
